Reference: patent US20120015919A1, “THERAPIES FOR TREATING CANCER USING COMBINATIONS OF COX-2 INHIBITORS AND AROMATASE INHIBITORS OR COMBINATIONS OF COX-2 INHIBITORS AND ESTROGEN RECEPTOR ANTAGONISTS” (Tragara Pharmaceuticals, Inc., priority 2007, published 2012)

Details: human, in vivo

CCOc1ccc(-c2cc(C)cn2-c2ccc(S(N)(=O)=O)cc2)cc1 [2-(4-ethoxyphenyl)-4-methyl-1-(4-sulfamoylphenyl)-pyrrole]
gastric or duodenal toxicity compared to placebo: no increase
